Five compounds from ChEMBL document CHEMBL5465560, “Selectivity Literature for EUbOPEN Chemogenomic Library” (2024) can be followed below.

Experiment [1] addresses T1, Phosphorylase b kinase gamma catalytic chain, liver/testis isoform (Homo sapiens) (UniProt P15735).
T1 sequence (whole entry): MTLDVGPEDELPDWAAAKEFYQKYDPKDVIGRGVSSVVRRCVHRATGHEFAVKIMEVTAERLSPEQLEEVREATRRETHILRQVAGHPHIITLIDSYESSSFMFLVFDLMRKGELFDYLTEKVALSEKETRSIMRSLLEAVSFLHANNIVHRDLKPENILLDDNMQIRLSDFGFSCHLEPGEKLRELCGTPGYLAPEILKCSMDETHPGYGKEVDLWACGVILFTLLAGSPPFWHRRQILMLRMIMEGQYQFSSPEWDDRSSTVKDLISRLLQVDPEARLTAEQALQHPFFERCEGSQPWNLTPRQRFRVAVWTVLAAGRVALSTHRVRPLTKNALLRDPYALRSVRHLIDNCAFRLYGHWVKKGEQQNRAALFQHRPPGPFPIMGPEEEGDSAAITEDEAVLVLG
Put plainly: Selectivity interaction (KinomeScan (DiscoverX)) EUB0000695a PHKG2. As to conditions: at 100 nM.

Experiment [2] deals with Calcium/calmodulin-dependent protein kinase kinase 1 (Homo sapiens) (UniProt Q8N5S9). Put plainly: Selectivity interaction (Kinase panel (Invitrogen)) EUB0000639a CAMKK1. As to conditions: at 200 nM.
The target in experiment [3] is T2, Serine/threonine-protein kinase TAO1 (Homo sapiens) (UniProt Q7L7X3).
T2 sequence (whole entry): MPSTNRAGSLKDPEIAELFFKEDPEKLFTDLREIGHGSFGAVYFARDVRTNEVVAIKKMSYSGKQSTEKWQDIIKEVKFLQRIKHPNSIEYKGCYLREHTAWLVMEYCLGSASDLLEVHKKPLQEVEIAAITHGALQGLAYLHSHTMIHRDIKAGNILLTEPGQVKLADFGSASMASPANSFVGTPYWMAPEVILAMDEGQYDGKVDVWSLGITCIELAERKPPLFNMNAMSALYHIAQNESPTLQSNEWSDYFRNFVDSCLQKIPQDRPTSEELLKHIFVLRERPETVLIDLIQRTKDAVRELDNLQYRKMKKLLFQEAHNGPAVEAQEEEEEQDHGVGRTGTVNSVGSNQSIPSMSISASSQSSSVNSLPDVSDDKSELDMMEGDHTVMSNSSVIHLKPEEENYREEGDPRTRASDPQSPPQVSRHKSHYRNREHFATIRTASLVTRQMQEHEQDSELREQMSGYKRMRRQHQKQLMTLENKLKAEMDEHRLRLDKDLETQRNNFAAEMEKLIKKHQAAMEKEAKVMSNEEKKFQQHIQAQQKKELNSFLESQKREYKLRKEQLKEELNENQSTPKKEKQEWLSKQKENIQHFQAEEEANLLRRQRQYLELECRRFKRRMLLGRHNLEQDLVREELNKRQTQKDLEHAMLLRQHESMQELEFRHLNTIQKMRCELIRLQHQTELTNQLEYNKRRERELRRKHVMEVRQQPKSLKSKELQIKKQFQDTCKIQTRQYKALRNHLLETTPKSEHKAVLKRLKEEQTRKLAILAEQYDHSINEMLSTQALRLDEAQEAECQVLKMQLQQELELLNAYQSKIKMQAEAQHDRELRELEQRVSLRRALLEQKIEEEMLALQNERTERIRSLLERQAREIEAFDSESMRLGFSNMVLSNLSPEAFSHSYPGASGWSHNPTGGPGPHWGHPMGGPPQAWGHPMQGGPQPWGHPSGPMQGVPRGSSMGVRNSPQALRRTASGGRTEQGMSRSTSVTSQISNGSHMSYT
As to the kind of experiment: Selectivity interaction (ActivX KiNativ screen (kinase selectivity in THP-1 cell lysates)) EUB0000639a TAOK1. It is filed as subcellular. As to conditions: lysate.

The target in experiment [4] is T3, Rhodopsin kinase GRK1 (Homo sapiens) (UniProt Q15835).
T3 sequence (whole entry): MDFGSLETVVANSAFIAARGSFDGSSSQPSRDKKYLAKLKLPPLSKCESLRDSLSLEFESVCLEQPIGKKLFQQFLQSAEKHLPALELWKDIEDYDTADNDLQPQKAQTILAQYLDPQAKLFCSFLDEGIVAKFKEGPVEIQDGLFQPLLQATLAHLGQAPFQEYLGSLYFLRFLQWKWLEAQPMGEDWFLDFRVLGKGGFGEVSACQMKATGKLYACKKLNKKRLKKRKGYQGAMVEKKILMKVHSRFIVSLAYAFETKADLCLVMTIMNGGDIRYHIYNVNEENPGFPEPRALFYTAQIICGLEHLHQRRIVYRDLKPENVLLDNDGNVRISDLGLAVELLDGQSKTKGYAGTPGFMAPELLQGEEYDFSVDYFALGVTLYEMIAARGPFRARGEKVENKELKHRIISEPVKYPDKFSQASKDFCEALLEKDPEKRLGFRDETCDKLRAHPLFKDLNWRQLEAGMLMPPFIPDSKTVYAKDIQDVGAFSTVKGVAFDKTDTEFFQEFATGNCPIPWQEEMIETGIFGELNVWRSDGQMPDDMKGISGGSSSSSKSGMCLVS
As to the kind of experiment: Selectivity interaction (KinomeScan (DiscoverX)) EUB0001049a GRK1. Conditions: at 1 µM.

The target of experiment [5] is SRSF protein kinase 1 (Homo sapiens, UniProt Q96SB4). As to the kind of experiment: Selectivity interaction (Upstate Kinase Profiler service (Millipore)) EUB0000056c SRPK1. Conditions: at 1 µM.
For experiment [6], the target named is T4, Membrane-associated tyrosine- and threonine-specific cdc2-inhibitory kinase (Homo sapiens) (UniProt Q99640).
T4 sequence (whole entry): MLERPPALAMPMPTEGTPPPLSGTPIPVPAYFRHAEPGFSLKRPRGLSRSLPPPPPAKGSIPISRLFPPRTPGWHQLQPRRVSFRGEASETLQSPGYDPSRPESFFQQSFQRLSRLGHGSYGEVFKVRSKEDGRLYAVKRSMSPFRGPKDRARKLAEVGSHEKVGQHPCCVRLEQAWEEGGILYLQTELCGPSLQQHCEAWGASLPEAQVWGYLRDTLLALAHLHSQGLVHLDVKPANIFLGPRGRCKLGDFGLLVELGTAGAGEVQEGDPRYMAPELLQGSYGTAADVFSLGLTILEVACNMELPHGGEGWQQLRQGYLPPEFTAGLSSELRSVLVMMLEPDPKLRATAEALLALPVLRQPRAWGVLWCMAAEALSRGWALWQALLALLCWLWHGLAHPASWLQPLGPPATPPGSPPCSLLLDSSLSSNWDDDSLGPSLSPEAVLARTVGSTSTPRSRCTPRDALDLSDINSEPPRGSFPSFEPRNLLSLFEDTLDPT
Put plainly: Selectivity interaction (KinomeScan (DiscoverX)) EUB0000229b PKMYT1. Conditions: at 10 µM.

Calcium/calmodulin-dependent protein kinase kinase 1 (Homo sapiens), sequence (Q8N5S9 whole entry, looked up): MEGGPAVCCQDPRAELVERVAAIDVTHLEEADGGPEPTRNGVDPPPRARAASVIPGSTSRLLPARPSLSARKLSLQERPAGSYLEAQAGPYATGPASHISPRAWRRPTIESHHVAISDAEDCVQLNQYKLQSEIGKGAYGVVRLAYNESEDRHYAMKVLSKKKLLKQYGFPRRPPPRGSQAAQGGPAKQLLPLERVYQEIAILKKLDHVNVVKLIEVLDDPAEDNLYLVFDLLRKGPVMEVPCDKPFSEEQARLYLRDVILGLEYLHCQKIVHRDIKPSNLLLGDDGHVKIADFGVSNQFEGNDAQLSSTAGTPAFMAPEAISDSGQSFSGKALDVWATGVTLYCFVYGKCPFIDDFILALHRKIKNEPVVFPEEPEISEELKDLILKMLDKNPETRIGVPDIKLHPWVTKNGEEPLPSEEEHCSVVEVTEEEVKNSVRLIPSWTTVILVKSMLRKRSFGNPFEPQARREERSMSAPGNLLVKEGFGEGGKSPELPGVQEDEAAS
SRSF protein kinase 1, sequence (Q96SB4 whole entry): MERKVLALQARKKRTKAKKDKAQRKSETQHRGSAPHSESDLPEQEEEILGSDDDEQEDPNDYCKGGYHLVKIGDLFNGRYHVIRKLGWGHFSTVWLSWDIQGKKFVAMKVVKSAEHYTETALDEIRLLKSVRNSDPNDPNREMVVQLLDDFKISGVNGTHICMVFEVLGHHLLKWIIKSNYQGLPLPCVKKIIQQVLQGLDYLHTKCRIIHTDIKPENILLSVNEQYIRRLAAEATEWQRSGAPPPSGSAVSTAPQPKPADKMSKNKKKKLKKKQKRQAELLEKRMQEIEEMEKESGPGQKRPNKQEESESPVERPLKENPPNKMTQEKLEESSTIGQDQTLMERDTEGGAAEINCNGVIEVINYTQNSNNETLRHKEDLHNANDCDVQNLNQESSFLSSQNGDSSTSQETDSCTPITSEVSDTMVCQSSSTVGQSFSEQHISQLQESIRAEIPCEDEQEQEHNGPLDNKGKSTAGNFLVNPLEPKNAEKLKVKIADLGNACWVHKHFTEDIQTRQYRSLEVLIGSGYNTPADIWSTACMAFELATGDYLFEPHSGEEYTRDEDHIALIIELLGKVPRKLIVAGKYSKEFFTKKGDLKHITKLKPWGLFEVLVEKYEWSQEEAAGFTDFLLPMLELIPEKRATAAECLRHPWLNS

In turn, `Cc1cc(F)c(C(=O)Nc2cccc(-c3nncn3C(C)C)n2)cc1-n1cnc(C2CC2)c1` displayed a % of control in experiment [1] of 85%.
On to `CC[C@@H]1[C@H](F)C(=O)N[C@@H]1COc1nccc2cc(C(N)=O)c(OC)cc12` [ZIMLOVISERTIB], for which the % of inhibition in experiment [2] is 2.23%; in experiment [3] (at 0.01 µM) it was 6.6%; in experiment [3] (at 0.04 µM) it was -1.6%; in experiment [3] (at 0.2 µM), 6.9%; in experiment [3] (at 1 µM), 12.9%; in experiment [3] (at 5 µM) it was 41.7%.
On to `COc1cc(Nc2nc(C)cc(-c3cnn4nc(OC)ccc34)n2)cc(C(F)(F)F)c1`, for which, in experiment [4], the % of control came out at 75%.
Take `Cc1ccc(-c2ccc3c(ccc4sc5c(c43)NC[C@@H](C)NC5=O)n2)cn1`: in experiment [5], the % of inhibition amounted to 34%.
Take `COc1cc(N(C)c2ccnc3ccc(C(F)(F)F)cc23)cc(OC)c1OC`: the % binding in experiment [6] was found to be 94%.
